Measurements taken from US20260034091A1, “Compositions and Methods for Treating Metabolic Disorders” (The Regents of the University of California, priority 2022, published 2026).

Assays:
[1] = system: 60% HFD diet-induced obesity in mice; test: Dose-dependent effect of TOFA in 60% HFD mouse model of diet-induced obesity (DIO); assay type: in vivo, C57BL/6J male mice; settings: for body weight: oral
Experimental: Six-week-old C57BL/6J male mice were fed with a 60 kcal % fat diet (Research Diets A12492i) for ten weeks before introduction of either vehicle (control) or TOFA, at varying doses, for an additional two weeks. TOFA was orally administered in doses of either 12.5, 25, 62.5, or 125 mg/kg, BID. Mice weights and food intake were monitored during the treatment time course. Prior to harvest, mice underwent whole body composition analysis (EchoMRI™ 2012). Upon study termination at 12 weeks, serum and liver samples were collected. Hepatic and serum triglyceride and cholesterol levels were measured by commercially available kits (abcam65336 and abcam65390, respectively). Additional liver samples were fixed in 4% paraformaldehyde and embedded in paraffin blocks for sectioning and subsequently stained with hematoxylin and eosin (H&E).

PPAR signaling pathway = test: RNA sequencing, qPCR and western blot of liver samples from CDAHFD late stage NAFLD/NASH mice; assay type: in vivo, C57BL/6 male mice
Experimental: (§1) Six-week-old C57BL/6 male mice were fed with a L-Amino Acid Diet With 60 kcal % Fat With 0.1% Methionine and No Added Choline (Research Diets A06071302i) for eight weeks before introduction of either vehicle (control) or 250 mg/kg of TOFA daily via twice daily controlled oral gavage for an additional four weeks (FIG. 3A). Upon study termination at 12 weeks, serum and liver samples were collected. Serum liver damage biomarkers, ALT and AST, were measured by commercially available kits (abcam105134 and abcam 105135, respectively). Hepatic and serum triglyceride levels were measured from a commercially available kit (abcam65336). Liver samples were fixed in 4% paraformaldehyde and embedded in paraffin blocks for sectioning and subsequently stained with hematoxylin and eosin (H&E) or Picrosirius Red with a fast green dye background. Frozen fresh liver tissue was embedded in OCT, sectioned, and subsequently stained with Oil Red O.
Liver samples were collected from mice in Example 3 (see above). Total RNA was extracted from liver tissues (Qiagen RNeasy kit), cDNA libraries were constructed (Roche KAPA HyperPrep kit), sequenced on the NovaSeq6000 platform (Novogene), and a downstream analysis pipeline was performed. Differentially expressed genes (DEGs) were defined by at least one log2-fold change (2-fold in linear scale) with an FDR cutoff of 0.05. For validation, total RNA was used to prepare cDNA (BioRAD iScript™ Reverse Transcription) according to manufacturer's protocol and quantitative polymerase chain reaction (qPCR) was performed with fast SYBR Green Mix (ThermoFisher) on the QuantStudio6 System (Applied Biosystems). Protein expression levels were measured by western blot using antibodies against very low density lipoprotein receptor (VLDLR) (AF2258, 1:2000) and btubulin (CST2146, 1:1000). Membranes were developed using a horse radish peroxidase (HRP) secondary antibody (1:5000) and visualized using an enhanced chemiluminescent HRP substrate (Thermo34577).

[2] = system: 60% kcal fat diet induced metabolic syndrome and early stage NAFLD in mice; test: Rescue effect of TOFA in 60% kcal fat diet induced early-stage hepatic steatosis and associated metabolic disorders; assay type: in vivo, C57BL/6 male mice
Experimental: Six-week-old C57BL/6 male mice were fed with a 60 kcal % fat diet (Research Diets A12492i) for seven weeks before introduction of either vehicle (control) or 250 mg/kg initial loading dose of TOFA daily via twice daily oral gavage for one week (FIG. 2A). Mice were then treated with either vehicle (control) or 125 mg/kg maintenance dose of TOFA daily via twice daily gavage for three additional weeks. Mice weights were tracked during the entire time course. After three weeks of treatment, an intraperitoneal glucose tolerance test (IP-GTT) and insulin tolerance test (IP-ITT) were performed. Prior to these tests, mice were fasted for six hours before a challenge of either 1 g/kg D-glucose or 0.75 U/kg HumulinR (Eli Lilly) and blood glucose levels were monitored for two hours (Bayer Contour Next). Venous fasting blood was collected through the tail vein and used to measure fasting insulin levels by commercially available ELISA kits (CrystalChem90080). Prior to harvest, mice underwent whole body composition analysis (EchoMRI™ 2012). Upon study termination at 11 weeks, serum and liver samples were collected. Serum liver damage biomarkers, ALT and AST, were measured by commercially available kits (abcam 105134 and abcam105135, respectively). Hepatic and serum triglyceride levels were measured from a commercially available kit (abcam65336).

[3] = system: CDAHFD induced late stage NAFLD/NASH in mice; test: Rescue effect of TOFA in CDAHFD induced late-stage NAFLD/NASH progression; assay type: in vivo, C57BL/6 male mice; settings: 250 mg/kg daily, four weeks
Experimental: as §1

[4] = 12.5, 25, 62.5, or 125 mg/kg, BID, two weeks
[5] = liver samples of Example 3, RNA-seq
[6] = 250 mg/kg daily 1 week then 125 mg/kg daily 3 weeks, twice daily oral gavage
[7] = scored per Kleiner, et al. (2005)

CCCCCCCCCCCCCCOc1ccc(C(=O)O)o1 [TOFA, 5-(Tetradecyloxy)-2-furoic acid]
food intake [1, 4]: remained constant | hepatic steatosis (H&E liver sections) [1, 4]: improvement in hepatic steatosis in a dose-dependent manner | serum cholesterol levels (HDL and VLDL/LDL fractions) [1, 4]: dose-dependent decrease | serum triglyceride levels [1, 4]: dose-dependent decrease | overall lean mass (EchoMRI) ([1]; all treatment groups): no changes | body weight ([1]; highest dose 125 mg/kg, BID, two weeks): weight loss | fat mass as a percentage of body weight (EchoMRI) ([1]; highest dose treatment group (125 mg/kg, BID)): decrease in fat mass as a percentage of body weight | liver triglyceride levels ([1]; highest dosing treatment regimens): striking decreases | body weight ([1]; lower doses (12.5, 25, 62.5 mg/kg, BID), two weeks): smaller or negligible changes in body weight | protein expression levels of VLDLR (western blot) (PPAR signaling pathway; liver samples of Example 3): increase in protein expression levels | GSEA: inflammatory response (PPAR signaling pathway; [5]): negative correlation | GSEA: oxidative phosphorylation, fatty acid metabolism, peroxisomes (PPAR signaling pathway; [5]): significantly upregulated | genes of the PPAR signaling pathway (2021 KEGG human database) (PPAR signaling pathway; [5]): upregulated various genes under PPAR transcriptional control | expression of VLDLR gene (mRNA, qPCR) (PPAR signaling pathway; liver samples of Example 3, relative to r18S mRNA): significant increase | highest upregulated genes (RNA-seq of liver) (PPAR signaling pathway; liver samples of Example 3, FDR cutoff 0.05, 2-fold change): canonical PPAR-alpha target genes | body weight [2, 6]: weight loss compared to the vehicle control treated mice | fat mass relative to whole body weight (EchoMRI) [2, 6]: significant reduction of fat mass | food intake [2, 6]: without impacting food intake | lean mass relative to whole body weight (EchoMRI) [2, 6]: increase in lean mass | fasting blood glucose levels ([2]; after three weeks of treatment, 6 h fast): vast improvements | insulin tolerance test (IP-ITT) ([2]; after three weeks of treatment, 6 h fast, 0.75 U/kg HumulinR): improved insulin sensitivity | intraperitoneal glucose tolerance test (IP-GTT) ([2]; after three weeks of treatment, 6 h fast, 1 g/kg D-glucose): more glucose tolerant | fasting insulin levels ([2]; after three weeks of treatment, ELISA): significantly lower | hepatic levels of triglycerides ([2]; study termination at 11 weeks): significantly reduced | serum ALT ([2]; study termination at 11 weeks): no significant changes | serum AST ([2]; study termination at 11 weeks): no significant changes | serum levels of triglycerides ([2]; study termination at 11 weeks): significantly reduced | cytoplasmic vacuolations by H&E staining ([3]; liver sections): decreased cytoplasmic vacuolations | fibrosis by Picrosirius Red staining ([3]; liver sections): decreased fibrosis | lipid content by Oil Red O staining ([3]; liver sections): reduction in lipid content | ballooning (histopathological score) [3, 7]: reductions | degree of hepatic steatosis (histopathological score) [3, 7]: decreased degree of hepatic steatosis | fibrosis (histopathological score) [3, 7]: reductions | inflammation (histopathological score) [3, 7]: reductions | liver triglyceride content ([3]; twice daily oral gavage): reduced | serum ALT activity levels ([3]; twice daily oral gavage): significant decrease | serum AST levels ([3]; twice daily oral gavage): averaged reduction | serum triglyceride levels ([3]; twice daily oral gavage): no increase
